Drawing on patent US6211181A, “1-Benzenesulfonyl pyrrolidine derivatives as bradykinin receptor antagonists” (Fournier Industrie et Sante, priority 1995, dated 2001), this text covers inhibition for 16 molecules.

Counter-ions that a name gives are not always drawn.

This test concerns the target T1, guinea-pig B2 receptor (Cavia porcellus, UniProt O70526).
T1 construct: Ileum segments are isolated from male guinea-pigs of the Dunkin-Hartley strain; tissue Iffa Credo, l'Arbresle, France (supplier of the animals); host or cells: ileum membranes of male Dunkin-Hartley guinea pigs
T1 sequence (O70526 1-372): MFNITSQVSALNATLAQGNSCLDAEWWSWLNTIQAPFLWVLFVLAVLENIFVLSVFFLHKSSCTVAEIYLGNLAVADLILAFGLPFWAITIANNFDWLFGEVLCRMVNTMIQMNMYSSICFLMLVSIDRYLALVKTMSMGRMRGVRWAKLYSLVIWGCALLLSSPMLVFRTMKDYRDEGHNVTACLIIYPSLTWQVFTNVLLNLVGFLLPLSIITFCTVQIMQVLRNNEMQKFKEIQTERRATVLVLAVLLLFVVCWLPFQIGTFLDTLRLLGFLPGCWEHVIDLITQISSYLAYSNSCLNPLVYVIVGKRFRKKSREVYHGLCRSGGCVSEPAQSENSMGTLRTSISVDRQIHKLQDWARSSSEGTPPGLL
Briefly: [3H]-bradykinin binding to guinea-pig ileum membranes. The note with it: test compound at 10^-6 M, [3H]-bradykinin 120 pM, 90 min at 20° C., read-out: ACTIVITY % (percentage inhibition of the binding of [3H]-bradykinin). How it is done: The following pharmacological test is used: Ileum segments are isolated from male guinea-pigs of the Dunkin-Hartley strain (Iffa Credo, l'Arbresle, France) and ground in the following TES buffer: TES 25 mM, 1,10-phenanthroline 1 mM (pH 6.8), bacitracin 140 μg/ml, BSA 1 g/l. The membranes are then isolated by centrifugation (18,000 rpm; 20 min; 4° C.). The binding studies are carried out in the TES buffer using [^3 H]-bradykinin (120 pM) and 50 μg of membrane protein per test (final volume 500 μl) with an equilibrium time of 90 min at 20° C. […] The results obtained from these tests (shown as "activity") are collated in Table I below with reference to the Examples given in the description.

As usually defined, the inhibition is how much of the control response was suppressed. Turning to `Cc1ccc2cccc(OCc3c(Cl)ccc(S(=O)(=O)N4CCC[C@H]4C(=O)N4CCNCC4)c3Cl)c2n1` [Example 2, 1-[[3-[(2-Methylquinolin-8-yl)oxymethyl]-2,4-dichlorophenyl]sulfonyl]-2-(S)-[(piperazin-1-yl)carbonyl]pyrrolidine], the inhibition at 1 µM was determined as 100%.
For `Cc1ccc2cccc(OCc3c(Cl)ccc(S(=O)(=O)N4CCC[C@H]4C(=O)NCCN)c3Cl)c2n1` [Example 3, 1-[[3-[(2-Methylquinolin-8-yl)oxymethyl]-2,4-dichlorophenyl]sulfonyl]-N-(2-aminoethyl)-2-(S)-pyrrolidinecarboxamide] the value was 100%; for `Cc1cc(C)c2cccc(OCc3c(Cl)ccc(S(=O)(=O)N4CCC[C@H]4C(=O)N4CCNCC4)c3Cl)c2n1` [Example 5, 1-[[3-[(2,4-Dimethylquinolin-8-yl)oxymethyl]-2,4-dichlorophenyl]sulfonyl]-2-(S)-[(piperazin-1-yl)carbonyl]pyrrolidine bistrifluoroacetate], 100%.
For `Cc1ccc2cccc(OCc3c(Cl)ccc(S(=O)(=O)N4CCC[C@H]4C(=O)NC4CCNCC4)c3Cl)c2n1` [Example 8, 1-[[3-[(2-Methylquinolin-8-yl)oxymethyl]-2,4-dichlorophenyl]sulfonyl]-N-(piperidin-4-yl)-2-(S)-pyrrolidinecarboxamide dihydrochloride] the value was 100%.
The same measure for `Cc1ccc2cccc(OCc3c(Cl)ccc(S(=O)(=O)N4CCC[C@H]4C(=O)NCCCN)c3Cl)c2n1` [Example 9, 1-[[3-[(2-Methylquinolin-8-yl)oxymethyl]-2,4-dichlorophenyl]sulfonyl]-N-(3-aminopropyl)-2-(S)-pyrrolidinecarboxamide dihydrochloride]: 100%; for `Cc1ccc2cccc(OCc3c(Cl)ccc(S(=O)(=O)N4CCC[C@H]4C(=O)NCC4CCNCC4)c3Cl)c2n1` [Example 10, 1-[[3-[(2-Methylquinolin-8-yl)oxymethyl]-2,4-dichlorophenyl]sulfonyl]-N-[(piperidin-4-yl)methyl]-2-(S)-pyrrolidinecarboxamide dihydrochloride]: 100%; for `Cc1cc(C)c2cccc(OCc3c(Cl)ccc(S(=O)(=O)N4CCC[C@H]4C(=O)N4CCN(C(=N)N)CC4)c3Cl)c2n1` [Example 14, 1-[[3-[(2,4-Dimethylquinolin-8-yl)oxymethyl]-2,4-dichlorophenyl]sulfonyl]-2-(S)-[[4-(aminoiminomethyl)piperazin-1-yl]carbonyl]pyrrolidine bistrifluoroacetate]: 98%.
With `Cc1cc(C)c2cccc(OCc3c(Cl)ccc(S(=O)(=O)N4C[C@H](O)C[C@H]4C(=O)N4CCN(C(=N)N)CC4)c3Cl)c2n1` [Example 15, 1-[[3-[(2,4-Dimethylquinolin-8-yl)oxymethyl]-2,4-dichlorophenyl]sulfonyl]-2-(S)-[[4-(aminoiminomethyl)piperazin-1-yl]carbonyl]-4-(R)-hydroxypyrrolidine bistrifluoroacetate], the inhibition at 1 µM stood at 100%.
For `Cc1ccc2cccc(OCc3c(Cl)ccc(S(=O)(=O)N4CCC[C@H]4C(=O)NCCNC(=N)N)c3Cl)c2n1` [Example 16, 1-[[3-[(2-Methylquinolin-8-yl)oxymethyl]-2,4-dichlorophenyl]sulfonyl]-N-[2-[(aminoiminomethyl)amino]ethyl]-2-(S)-pyrrolidinecarboxamide bistrifluoroacetate] the value was 100%.
For `Cc1cc(C)c2cccc(OCc3c(Cl)ccc(S(=O)(=O)N4CCC[C@H]4C(=O)NCCNC(=N)N)c3Cl)c2n1` [Example 19, 1-[[3-[(2,4-Dimethylquinolin-8yl)oxymethyl]-2,4-dichlorophenyl]sulfonyl]-N-[2-[(aminoiminomethyl)amino]ethyl]-2-(S)-pyrrolidinecarboxamide dihydrochloride] the value was 97%; for `Cc1cc(C)c2cccc(OCc3c(Cl)ccc(S(=O)(=O)N4CCC[C@H]4C(=O)NCCCNC(=N)N)c3Cl)c2n1` [Example 20, 1-[[3-[(2,4-Dimethylquinolin-8-yl)oxymethyl]-2,4-dichlorophenyl]sulfonyl]-N-[3-[(aminoiminomethyl)amino]propyl]-2-(S)-pyrrolidinecarboxamide dihydrochloride], 98%; for `Cc1ccc2cccc(OCc3c(Cl)ccc(S(=O)(=O)N4CCC[C@H]4C(=O)NCC4CCN(C(=N)N)CC4)c3Cl)c2n1` [Example 22, 1-[[3-[(2-Methylquinolin-8-yl)oxymethyl]-2,4-dichlorophenyl]sulfonyl]-N-[[1-(aminoiminomethyl)piperidin-4-yl]methyl]-2-(S)-pyrrolidinecarboxamide dihydrochloride], 98%.
For `Cc1ccc2cccc(OCc3c(Cl)ccc(S(=O)(=O)N4CCC[C@H]4C(=O)NC4CCN(C(=N)N)CC4)c3Cl)c2n1` [Example 23, 1-[[3-[(2-Methylquinolin-8-yl)oxymethyl]-2,4-dichlorophenyl]sulfonyl]-N-[1-(aminoiminomethyl)piperidin-4-yl]-2-(S)-pyrrolidinecarboxamide dihydrochloride], the inhibition at 1 µM was 100%.
In the case of `Cc1ccc2cccc(OCc3c(Cl)ccc(S(=O)(=O)N4CCC[C@H]4C(=O)N4CCN(C(=N)N)CC4)c3Cl)c2n1` [Example 24, 1-[[3-[(2-Methylquinolin-8-yl)oxymethyl]-2,4-dichlorophenyl]sulfonyl]-2-(S)-[[4-(aminoiminomethyl)piperazin-1-yl]carbonyl]pyrrolidine dihydrochloride], the inhibition at 1 µM amounted to 98%.
The same measure for `Cc1ccc2cccc(OCc3c(Cl)ccc(S(=O)(=O)N4CCC[C@H]4C(=O)N4CC(C)N(C(=N)N)C(C)C4)c3Cl)c2n1` (stereo partly drawn) [Example 25, 1-[[3-[(2-Methylquinolin-8yl)oxymethyl]-2,4-dichlorophenyl]sulfonyl]-2-(S)-[[4-(aminoiminomethyl)-3,5-dimethylpiperazin-1-yl]carbonyl]pyrrolidine dihydrochloride]: 100%; for `Cc1ccc2cccc(OCc3c(Cl)ccc(S(=O)(=O)N4CCC[C@H]4C(=O)N4CCN(C(=NC(C)C)NC(C)C)CC4)c3Cl)c2n1` [Example 27, 1-[[3-[(2-Methylquinolin-8-yl)oxymethyl]-2,4-dichlorophenyl]sulfonyl]-2-(S)-[[4-[(1-methylethylamino)(1-methylethylimino)methyl]piperazin-1-yl]-carbonyl]pyrrolidine dihydrochloride]: 100%.
